Test results: ChEMBL document CHEMBL1134752 (Bioorg Med Chem Lett, 2001)

Assays:
[1] = molecular target: Prostaglandin G/H synthase 1 (Homo sapiens, UniProt P23219); assay: In vitro inhibition of Prostaglandin G/H synthase 1 in human whole blood assay; assay type: tissue-based
[2] = molecular target: T1, Prostaglandin G/H synthase 2 (Homo sapiens, UniProt P35354); assay: In vitro inhibition of Prostaglandin G/H synthase 2 in human whole blood assay; assay type: tissue-based
T1 sequence (P35354 whole entry): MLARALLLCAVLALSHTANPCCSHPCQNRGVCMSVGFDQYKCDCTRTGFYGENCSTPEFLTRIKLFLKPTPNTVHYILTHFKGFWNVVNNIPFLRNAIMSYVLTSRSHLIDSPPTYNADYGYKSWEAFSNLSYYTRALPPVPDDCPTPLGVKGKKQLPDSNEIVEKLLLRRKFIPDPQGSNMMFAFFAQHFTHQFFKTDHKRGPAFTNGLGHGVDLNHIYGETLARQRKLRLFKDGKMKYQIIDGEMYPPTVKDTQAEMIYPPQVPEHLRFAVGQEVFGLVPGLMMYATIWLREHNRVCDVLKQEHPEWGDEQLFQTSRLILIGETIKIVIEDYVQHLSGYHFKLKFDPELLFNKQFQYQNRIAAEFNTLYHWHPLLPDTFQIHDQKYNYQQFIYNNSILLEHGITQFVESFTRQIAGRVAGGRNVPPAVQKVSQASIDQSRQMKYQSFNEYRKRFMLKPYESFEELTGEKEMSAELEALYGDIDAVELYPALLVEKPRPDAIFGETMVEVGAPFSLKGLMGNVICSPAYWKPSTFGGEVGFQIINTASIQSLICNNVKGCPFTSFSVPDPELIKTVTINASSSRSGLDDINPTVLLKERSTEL

[3] = Half-life in human; assay type: ADME, organism-based; details: in vivo

Chain of Prostaglandin G/H synthase 1 (P23219 whole entry): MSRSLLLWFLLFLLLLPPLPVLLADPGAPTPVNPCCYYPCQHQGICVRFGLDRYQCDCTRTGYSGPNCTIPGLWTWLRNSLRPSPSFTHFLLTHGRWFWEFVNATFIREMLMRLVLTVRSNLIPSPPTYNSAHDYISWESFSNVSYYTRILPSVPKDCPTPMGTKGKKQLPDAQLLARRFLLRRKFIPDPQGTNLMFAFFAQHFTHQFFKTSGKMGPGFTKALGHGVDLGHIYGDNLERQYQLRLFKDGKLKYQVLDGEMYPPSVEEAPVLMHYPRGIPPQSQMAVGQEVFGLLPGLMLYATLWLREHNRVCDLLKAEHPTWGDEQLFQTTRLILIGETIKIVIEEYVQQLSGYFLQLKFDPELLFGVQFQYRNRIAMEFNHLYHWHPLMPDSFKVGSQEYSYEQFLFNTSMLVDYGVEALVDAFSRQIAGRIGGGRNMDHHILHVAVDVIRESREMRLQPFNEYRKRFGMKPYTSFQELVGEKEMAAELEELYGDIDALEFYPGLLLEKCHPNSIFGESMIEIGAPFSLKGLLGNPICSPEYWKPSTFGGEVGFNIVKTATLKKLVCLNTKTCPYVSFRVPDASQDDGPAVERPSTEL

SMILES | IC50 [1] | IC50 [2] | half-life [3]
Cc1ccc(-c2ncc(Cl)cc2-c2ccc(S(C)(=O)=O)cc2)c[n+]1[O-] | > 100 µM | 18 µM | 
CS(=O)(=O)c1ccc(-c2cc(Cl)cnc2-c2ccc(CO[C@@H]3O[C@@H](C(=O)O)[C@@H](O)[C@H](O)[C@@H]3O)nc2)cc1 | > 100 µM | > 33 µM | 
CC(C)OC1=C(c2ccc(S(C)(=O)=O)cc2)C(C)(C)OC1=O |  |  | 64 h
CS(=O)(=O)c1ccc(-c2cc(Cl)cnc2-c2ccc(CO)nc2)cc1 | > 100 µM | > 33 µM | 

Continued, in another order:

IC50 [1] | IC50 [2] | SMILES | half-life [3]
> 100 µM | 21 µM | CS(=O)(=O)c1ccc(-c2cc(Cl)cnc2-c2ccc(C(=O)O)nc2)cc1 | 
> 100 µM |  | Cc1ccc(-c2ncc(Cl)cc2-c2ccc(S(C)(=O)=O)cc2)cn1 [ETORICOXIB] | 
